Laboratory results as given in patent US20240158392A1 (Janssen Biotech, Inc., priority 2021, published 2024).

The compounds below were run against SIK2 (Homo sapiens, UniProt Q9H0K1) (assay: SIK2 Enzymatic Assay High Version 2 (High ATP)). Conditions: not given.
Chain of SIK2 (Q9H0K1 whole entry, species assumed): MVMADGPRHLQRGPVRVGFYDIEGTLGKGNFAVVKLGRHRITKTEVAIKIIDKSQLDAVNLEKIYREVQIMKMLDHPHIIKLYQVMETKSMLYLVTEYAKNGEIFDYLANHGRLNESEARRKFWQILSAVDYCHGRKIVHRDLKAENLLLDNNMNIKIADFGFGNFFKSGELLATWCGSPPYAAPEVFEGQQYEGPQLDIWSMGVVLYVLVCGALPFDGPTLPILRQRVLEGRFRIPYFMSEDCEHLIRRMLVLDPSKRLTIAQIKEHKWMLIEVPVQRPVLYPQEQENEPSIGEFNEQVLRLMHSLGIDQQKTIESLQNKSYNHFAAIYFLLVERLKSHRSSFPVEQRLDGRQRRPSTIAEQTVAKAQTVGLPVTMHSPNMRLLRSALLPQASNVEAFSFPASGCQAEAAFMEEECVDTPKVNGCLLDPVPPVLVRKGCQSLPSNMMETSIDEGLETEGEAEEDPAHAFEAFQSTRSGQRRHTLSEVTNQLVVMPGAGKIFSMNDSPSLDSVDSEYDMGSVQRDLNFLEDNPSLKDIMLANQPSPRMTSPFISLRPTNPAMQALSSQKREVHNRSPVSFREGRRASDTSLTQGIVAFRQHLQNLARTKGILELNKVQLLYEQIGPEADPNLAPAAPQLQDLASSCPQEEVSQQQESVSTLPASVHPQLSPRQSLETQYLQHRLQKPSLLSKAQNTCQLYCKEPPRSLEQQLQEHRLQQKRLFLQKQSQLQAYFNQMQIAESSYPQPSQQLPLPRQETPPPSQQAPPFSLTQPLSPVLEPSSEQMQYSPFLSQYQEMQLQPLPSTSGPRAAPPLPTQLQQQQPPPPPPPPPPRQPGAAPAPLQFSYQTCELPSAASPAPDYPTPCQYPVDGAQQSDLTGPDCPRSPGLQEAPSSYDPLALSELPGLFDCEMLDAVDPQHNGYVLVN
Format: biochemical
In short: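 At room temperature, enzyme (6 nM, 2× final) was preincubated with compound for 30 min, then 6 mM ATP and 400 μM HDAC5tide (both 2× final) were added for 2 h. ADP formed was measured by ADP-Glo Max (2 h reagent, 1 h detection) using luminescence.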
Compound `Cc1cc(-c2ccn3nc(Nc4cnc(C(F)(F)F)cn4)cc3c2)c(O[C@H]2C[C@H]3COC[C@@H](C2)N3)cn1` [Example 375, 5-(5-(((1R,5S,7s)-3-oxa-9-azabicyclo[3.3.1]nonan-7-yl)oxy)-2-methylpyridin-4-yl)-N-(5-(trifluoromethyl)pyrazin-2-yl)pyrazolo[1,5-a]pyridin-2-amine] has an IC50 of 0.00115 µM.
Compound `CC(=O)N1[C@@H]2COC[C@H]1C[C@@H](Oc1cnc(C)cc1-c1ccn3nc(Nc4ccc(=O)n(C)n4)cc3c1)C2` [Example 637, 6-((5-(5-(((1R,5S,7s)-9-acetyl-3-oxa-9-azabicyclo[3.3.1]nonan-7-yl)oxy)-2-methylpyridin-4-yl)pyrazolo[1,5-a]pyridin-2-yl)amino)-2-methylpyridazin-3(2H)-one] has an IC50 of 0.00642 µM.
Compound `Cc1cc(-c2ccn3nc(Nc4ccnc(C)n4)cc3c2)c(O[C@H]2C[C@H]3COC[C@@H](C2)N3S(C)(=O)=O)cn1` [Example 630] has an IC50 of 1.18 µM.
`Cc1cc(-c2ccn3nc(Nc4cnn(C(F)F)c4)cc3c2)c(O[C@H]2C[C@H]3COC[C@@H](C2)N3)cn1` [Example 117, 5-(5-(((1R,5S,7s)-3-oxa-9-azabicyclo[3.3.1]nonan-7-yl)oxy)-2-methylpyridin-4-yl)-N-(1-(difluoromethyl)-1H-pyrazol-4-yl)pyrazolo[1,5-a]pyridin-2-amine] was tested, and the IC50 was 0.000904 µM.
Compound `Cc1cc(-c2ccn3nc(Nc4ccn(C)n4)cc3c2)c(OC[C@H]2CNCCO2)cn1` [Example 429, 5-[2-methyl-5-[[(2R)-morpholin-2-yl]methoxy]-4-pyridyl]-N-(1-methylpyrazol-3-yl)pyrazolo[1,5-a]pyridin-2-amine] has an IC50 of 0.0122 µM.
Work on `CC(=O)N1[C@@H]2COC[C@H]1C[C@@H](Oc1cnc(C)cc1-c1ccn3nc(Nc4cc(C)nc(C)n4)cc3c1)C2` [Example 627, 1-((1R,5S,7s)-7-((4-(2-((2,6-dimethylpyrimidin-4-yl)amino)pyrazolo[1,5-a]pyridin-5-yl)-6-methylpyridin-3-yl)oxy)-3-oxa-9-azabicyclo[3.3.1]nonan-9-yl)ethan-1-one] yielded an IC50 of 0.0651 µM.

Same assay, conditions: enzyme 6 nM, 6 mM ATP and 400 μM HDAC5tide (each 2× final concentration); 30 minutes pre-incubation, 2 hours; ADP-Glo Max luminescence; read-out: SIK2 high ATP IC50 (μM) (Test Example 2)
With `Cc1cc(-c2ccn3nc(NC(=O)C4CC4)cc3c2)c(OC[C@]2(C#N)CCN(C)C2)cn1` (single isomer, unassigned) [Example 213, (*R)—N-[5-[5-[(3-cyano-1-methyl-pyrrolidin-3-yl)methoxy]-2-methyl-4-pyridyl]pyrazolo[1,5-a]pyridin-2-yl]cyclopropanecarboxamide] the IC50 was 0.0505 µM.
`N#Cc1cc(-c2ccn3nc(NC(=O)C4CC4)cc3c2)c(OC[C@H]2C[C@@H](NCc3ccccc3)C2)cn1` [Example 599, N-[5-[5-[[3-(benzylamino)cyclobutyl]methoxy]-2-cyano-4-pyridyl]pyrazolo[1,5-a]pyridin-2-yl]cyclopropanecarboxamide] was tested, and the IC50 was 0.141 µM.
`Cc1nccc(Nc2cc3cc(-c4cc(OC(F)F)ncc4OCC(C)(C)C#N)ccn3n2)n1` [Example 717, 3-[[6-(difluoromethoxy)-4-[2-[(2-methylpyrimidin-4-yl)amino]pyrazolo[1,5-a]pyridin-5-yl]-3-pyridyl]oxy]-2,2-dimethyl-propanenitrile] gave an IC50 of 0.00142 µM.
In the case of `Cc1cc(-c2ccn3nc(Nc4ccc(C)nn4)cc3c2)c(OC[C@]23C[C@H](CO2)N(C)C3)cn1` [Example 256, 5-[2-methyl-5-[[(1R,4R)-2-methyl-5-oxa-2-azabicyclo[2.2.1]heptan-4-yl]methoxy]-4-pyridyl]-N-(6-methylpyridazin-3-yl)pyrazolo[1,5-a]pyridin-2-amine], the IC50 is reported as 0.0198 µM.
For `CC(C)(C#N)COc1cnc(OC(F)F)cc1-c1ccn2nc(Nc3cnc(C(C)(C)O)cn3)cc2c1` [Example 713, 3-[[6-(difluoromethoxy)-4-[2-[[5-(1-hydroxy-1-methyl-ethyl)pyrazin-2-yl]amino]pyrazolo[1,5-a]pyridin-5-yl]-3-pyridyl]oxy]-2,2-dimethyl-propanenitrile], the IC50 was 0.00746 µM.
Compound `Cc1cc(-c2ccn3nc(Nc4cc(C(=O)N(C)C)cc(C)n4)cc3c2)c(OCC(C)(C)O)cn1` [Example 633, 2-[[5-[5-(2-hydroxy-2-methyl-propoxy)-2-methyl-4-pyridyl]pyrazolo[1,5-a]pyridin-2-yl]amino]-N,N,6-trimethyl-pyridine-4-carboxamide] has an IC50 of 0.105 µM.
`Cc1cc(-c2ccn3nc(Nc4cc(C)c(=O)n(CCOC(F)F)n4)cc3c2)c(O[C@H]2CC[C@H](O)CC2)cn1` [Example 283, 2-[2-(difluoromethoxy)ethyl]-6-[[5-[5-(4-hydroxycyclohexoxy)-2-methyl-4-pyridyl]pyrazolo[1,5-a]pyridin-2-yl]amino]-4-methyl-pyridazin-3-one] gave an IC50 of 0.00429 µM.
`Cc1cc(-c2ccn3nc(NC(=O)C4CC4)cc3c2)c(O[C@H]2CNC2(C)C)cn1` [Example 510, N-[5-[5-[(3S)-2,2-dimethylazetidin-3-yl]oxy-2-methyl-4-pyridyl]pyrazolo[1,5-a]pyridin-2-yl]cyclopropanecarboxamide] showed an IC50 of 0.0614 µM.
Work on `Cc1cc(-c2cn3cc(Nc4cncc(C)n4)nc3cn2)c(O[C@H]2CC[C@H](O)CC2)cn1` [Example 657, 4-[[6-methyl-4-[2-[(6-methylpyrazin-2-yl)amino]imidazo[1,2-a]pyrazin-6-yl]-3-pyridyl]oxy]cyclohexanol] yielded an IC50 of 0.984 µM.
With `CCC1(COc2cnc(C)cc2-c2ccn3nc(Nc4cc(C)nc(C)n4)cc3c2)COC1` [Example 273, N-(2,6-dimethylpyrimidin-4-yl)-5-[5-[(3-ethyloxetan-3-yl)methoxy]-2-methyl-4-pyridyl]pyrazolo[1,5-a]pyridin-2-amine] the IC50 was 0.037 µM.
`Cc1cc(-c2ccn3nc(NC(=O)C4CC4)cc3c2)c(O[C@H]2CC[C@@](O)(C(F)(F)F)CC2)cn1` [Example 191, N-(5-(5-(((1r,4r)-4-hydroxy-4-(trifluoromethyl)cyclohexyl)oxy)-2-methylpyridin-4-yl)pyrazolo[1,5-a]pyridin-2-yl)cyclopropanecarboxamide] gave an IC50 of 0.00251 µM.
`Cc1cc(-c2ccn3nc(Nc4cnn(C)c4)cc3c2)c(OC[C@@H]2CNCCO2)cn1` [Example 128, 5-[2-methyl-5-[[(2S)-morpholin-2-yl]methoxy]-4-pyridyl]-N-(1-methylpyrazol-4-yl)pyrazolo[1,5-a]pyridin-2-amine] gave an IC50 of 0.0249 µM.
`Cc1cc(Nc2cc3cc(-c4cc(C#N)ccc4OCC(C)(C)O)ccn3n2)nc(C)n1` [Example 484, 3-[2-[(2,6-dimethylpyrimidin-4-yl)amino]pyrazolo[1,5-a]pyridin-5-yl]-4-(2-hydroxy-2-methyl-propoxy)benzonitrile] showed an IC50 of 0.0571 µM.
In the case of `Cc1cc(-c2ccn3nc(Nc4cc(C)nc(C)n4)cc3c2)c(OC[C@@H]2C[C@H](O)CO2)cn1` [Example 606, (3S,5S)-5-[[4-[2-[(2,6-dimethylpyrimidin-4-yl)amino]pyrazolo[1,5-a]pyridin-5-yl]-6-methyl-3-pyridyl]oxymethyl]tetrahydrofuran-3-ol], the IC50 is reported as 0.1 µM.
With `Cc1cc(-c2ccn3nc(Nc4cc(C)nc(C)n4)cc3c2)c(OCC(C)(C)N)cn1` [Example 359, 5-[5-(2-amino-2-methyl-propoxy)-2-methyl-4-pyridyl]-N-(2,6-dimethylpyrimidin-4-yl)pyrazolo[1,5-a]pyridin-2-amine] the IC50 was 0.0271 µM.
For `Cc1cc(-c2ccn3nc(Nc4ccc(C(=O)NC5CC5)cn4)cc3c2)c(OCC(C)(C)O)cn1` [Example 639, N-cyclopropyl-6-[[5-[5-(2-hydroxy-2-methyl-propoxy)-2-methyl-4-pyridyl]pyrazolo[1,5-a]pyridin-2-yl]amino]pyridine-3-carboxamide], the IC50 was 0.0887 µM.
